ChEMBL document CHEMBL5154823, “Amphiphilic cyclic peptide [W4KR5]-Antibiotics combinations as broad-spectrum antimicrobial agents” (Eur J Med Chem, 2022)
The source made the active and inactive calls. The calls are words filed in the database; no cut-off is given here. Where a SMILES comes first, the peptide text is derived from it.

Assays:
Klebsiella pneumoniae [1] = assay: Antibacterial activity against Klebsiella pneumoniae ATCC BAA 1705 assessed as clindamycin MIC incubated for 24 hrs by microbroth dilution assay; assay type: functional
Staphylococcus aureus [2] = assay: Antibacterial activity against Staphylococcus aureus ATCC BAA -1556 assessed as tobramycin MIC incubated for 24 hrs by microbroth dilution assay; assay type: functional
Staphylococcus aureus [3] = assay: Bactericidal activity against methicillin resistant Staphylococcus aureus ATCC BAA 1556 assessed as reduction in bacterial viability at MIC measured after 4 hrs by Time kill assay; assay type: functional, organism-based
Staphylococcus aureus [4] = assay: Antibacterial activity against Staphylococcus aureus ATCC BAA -1556 assessed as tetracycline MIC incubated for 24 hrs by microbroth dilution assay; assay type: functional
Klebsiella pneumoniae [5] = assay: Antibacterial activity against Klebsiella pneumoniae ATCC BAA 1705 assessed as levofloxacin MIC incubated for 24 hrs by microbroth dilution assay; assay type: functional
Staphylococcus aureus [6] = assay: Antibacterial activity against Methicillin resistant Staphylococcus aureus ATCC BAA -1556 assessed as reduction in microbial growth incubated for 24 hrs by microbroth dilution method; assay type: functional
Klebsiella pneumoniae [7] = assay: Synergistic antibacterial activity against imipenem resistant Klebsiella pneumoniae ATCC BAA 1705 assessed as fractional inhibitory concentration index incubated for 24 hrs in presence of meropenem; assay type: functional
Klebsiella pneumoniae [8] = assay: Bactericidal activity against Klebsiella pneumoniae ATCC BAA 1705 assessed as decrease of bacterial growth at MIC by Time kill assay; assay type: functional, organism-based
Pseudomonas aeruginosa = assay: Synergistic antibacterial activity against Pseudomonas aeruginosa ATCC 27883 assessed as fractional inhibitory concentration index incubated for 24 hrs in presence of meropenem by checkerboard assay; assay type: functional
Klebsiella pneumoniae [9] = assay: Synergistic antibacterial activity against Klebsiella pneumoniae ATCC BAA 1705 assessed as fractional inhibitory concentration index incubated for 24 hrs in presence of daptomycin by checkerboard assay; assay type: functional

## N=C(N)NCCC[C@@H]1NC(=O)[C@H](CCCNC(=N)N)NC(=O)[C@H](CCCNC(=N)N)NC(=O)[C@H](CCCNC(=N)N)NC(=O)[C@H](Cc2c[nH]c3ccccc23)NC(=O)[C@H](Cc2c[nH]c3ccccc23)NC(=O)[C@H](Cc2c[nH]c3ccccc23)NC(=O)[C@H](Cc2c[nH]c3ccccc23)NC(=O)[C@H](CCCCN)NC(=O)[C@H](CCCNC(=N)N)NC1=O (cyclo(KWWWWRRRRR))
Klebsiella pneumoniae [1]
  MIC: 2 µg/mL
Staphylococcus aureus [2]
  MIC: 0.0625 µg/mL
Staphylococcus aureus [3]
  Activity: Active
Staphylococcus aureus [4]
  MIC: 0.0625 µg/mL
Klebsiella pneumoniae [5]
  MIC: 8 µg/mL
Staphylococcus aureus [6]
  MIC: 4 µg/mL
Klebsiella pneumoniae [7]
  fractional inhibitory concentration index (FICI): 0.75
Klebsiella pneumoniae [8]
  Activity: Active
Pseudomonas aeruginosa
  fractional inhibitory concentration index (FICI): 0.375
Klebsiella pneumoniae [9]
  fractional inhibitory concentration index (FICI): 0.313
